Data reported in patent US20150297619A1, “METHODS AND COMPOSITIONS FOR PRESERVING THE MUCOSAL BARRIER” (priority 2014, published 2015).

How the values were obtained:
intestinal villi cells = experiment: TUNEL labeling of ischemic intestine (apoptosis); set-up: species or system rat; conditions: after 2 hrs ex vivo ischemia
Source text: To assess the level of apoptosis after ischemia, in situ terminal transferase dUTP nick end labeling (TUNEL) labeling was completed using a kit (Trevigen, Gaithersburg, Md.) according to manufacturer's instructions. Sections were counterstained with 0.05% toluidine blue in 1% boric acid to contrast 3,3′-diaminobenzidine (DAB) positive nuclei (brown) from negatively stained nuclei (blue). Prior to mounting, all slides were dehydrated (70, 95, 100% ethanol) and cleaned with xylene. After air-drying overnight, sections were mounted using Hard Set Mounting Media (Vector Laboratories, Burlingame, Calif.). Digital images were captured with a 20× objective (numerical aperture 0.5) and digitally montaged together after background subtraction.

hemorrhagic shock = experiment: Hemorrhagic shock model with enteral pretreatment, unflushed intestine (Example 1); assay type: in vivo, rat; conditions: for lesions in the jejunum (gross morphology): enteral pretreatment, HS 90 min at 30 mmHg, 3 hours observation; for rate of MAP decrease during reperfusion: last 2 hours of reperfusion, mean±SD
Protocol: Hemorrhagic Shock Model—Hemorrhagic shock (HS) was used to study the ability of treatments, shown in the ex vivo portion of the study to preserve the barrier and protect the intestine in the absence of luminal content, to prevent intestinal injury after ischemia/reperfusion injury in vivo when luminal content is present. Following general anesthesia, the femoral artery and vein were cannulated. Systolic, diastolic, heart rate, and mean arterial pressure (MAP) were recorded throughout the procedure using LabChart (AD Instruments, Dunedin, New Zealand). Rats were randomly divided into the following groups: […] No-HS animals were cannulated and immediately sacrificed for tissue collection. In the HS groups, anesthetized rats were subjected to laparotomy and the intestine was exposed, and a “Pre-HS” image was captured. […] Extra caution was applied to avoid over-inflation of the intestine. After injection, the intestine was carefully returned to the peritoneal cavity and the wound was covered with moist gauze and plastic wrap to keep the animal warm. To prevent clotting in catheters and shed blood, animals were heparinized (1 U/ml i.v., assuming 6% blood volume per body weight) prior to inducing hemorrhagic shock. […] At the end of ischemia, the shed blood was returned to the animal (0.5 ml/min). […] Gross morphology images of the intestine were captured, “Post-HS” At the end of reperfusion, segments of intestine (jejunum; 10 cm from ligament of Treitz) were snap frozen for homogenization and embedded in O.C.T. (Tissue Tek). MPO Activity—Myeloperoxidase (MPO) activity in the intestine as a measure for neutrophil accumulation was selected as an index of reperfusion injury after hemorrhagic shock. Segments from the jejunum (about at the position of segment 2 in the ex vitro study) were homogenized with their native luminal contents (PBS pH 6.0 in 0.5% HTAB). 40 μl of 2 mg/ml intestine homogenate was added to 180 μl of PBS (pH 6.0) mixed with 0.167 mg/ml o-dianisidine dihydrochloride (Sigma-Aldrich) in duplicate and 0.001% H2O2 (w/v). Absorbance was measured kinetically at 450 nm every 5 minutes for 1 hour at 37° C. As negative controls, 180 μl of PBS (pH 6.0) was added to 20 μl of sample and the absorbance values of these samples were subtracted from the measurements with the substrate. The change in absorbance was linear within this period, and MPO activity is presented as the change in absorbance per minute per milligram of protein.

[1] = system: MMP-9 dimers, pro-MMP-2, MMP-2, MMP-1 or MMP-3; experiment: Gelatin gel zymography of pre-ischemic intestinal homogenates renatured with inhibitor: MMP bands; assay type: biochemical, rat; conditions: inhibitor in renaturing and developing buffer: tranexamic acid 20 mM, doxycycline 1 mg/ml, GM-6001 1 ug/ml
Protocol: Gelatin Gel Zymography—Segments 2 and 7 from pre-ischemic intestines were homogenized (0.1 g tissue/ml homogenization buffer; PBS pH 7.4 with 0.5% hexadecyltrimethyl bromide) and centrifuged at 1.4×10^4 g for 20 minutes. Supernatants were stored at −80° C. until samples were processed. To assess the proteolytic activities of individual proteases in intestinal tissue samples, sample volumes of 1 μl (with 2 μg of protein) were separated by gel electrophoresis in SDS-PAGE gels containing 80 μg/ml gelatin. […] The molecular weights of the proteases were estimated by use of a standard protein ladder (Invitrogen). Gels were digitized and bands were analyzed by densitometry in ImageJ (rsbweb.nih.gov/ij/). […] These gels were compared to a concurrently run gel processed normally.

20 kDa serine proteases = experiment: Gelatin gel zymography of pre-ischemic intestinal homogenates renatured with inhibitor: serine protease bands; assay type: biochemical, rat; conditions: inhibitor in renaturing and developing buffer: tranexamic acid 20 mM, doxycycline 1 mg/ml, GM-6001 1 ug/ml
Protocol: Gelatin Gel Zymography—Segments 2 and 7 from pre-ischemic intestines were homogenized (0.1 g tissue/ml homogenization buffer; PBS pH 7.4 with 0.5% hexadecyltrimethyl bromide) and centrifuged at 1.4×10^4 g for 20 minutes. Supernatants were stored at −80° C. until samples were processed.
To assess the proteolytic activities of individual proteases in intestinal tissue samples, sample volumes of 1 μl (with 2 μg of protein) were separated by gel electrophoresis in SDS-PAGE gels containing 80 μg/ml gelatin. […] The molecular weights of the proteases were estimated by use of a standard protein ladder (Invitrogen). Gels were digitized and bands were analyzed by densitometry in ImageJ (rsbweb.nih.gov/ij/).
These gels were compared to a concurrently run gel processed normally.

SMILES	apoptosis (TUNEL labeling) (intestinal villi cells)	lesions in the jejunum (gross morphology) (hemorrhagic shock)	rate of MAP decrease during reperfusion (hemorrhagic shock)	MMP gelatinase activity bands (220 kDa MMP-9 dimers, pro-MMP-2, MMP-2, 50 kDa band) [1]	20 kDa serine protease activity bands (20 kDa serine proteases)
O=C[C@H](O)[C@@H](O)[C@H](O)[C@H](O)CO [Glucose, glucose]	little apoptosis in the villi	had lesions form in the jejunum	−0.21±0.13 mmHg/min		
NC[C@H]1CC[C@H](C(=O)O)CC1 [tranexamic acid]		had lesions form in the jejunum	−0.27±0.16 mmHg/min	significantly reduce	no significant effect
